According to paper PMC12564265, “Navigating the Deep Eutectic Solvent Landscape: Experimental and Machine Learning Solubility Explorations of Syringic, p-Coumaric, and Caffeic Acids” (International Journal of Molecular Sciences, 2025):

Assay: Shake-flask solubility with spectrophotometric measurement in aqueous DES mixtures
Assay type: physicochemical
Experimental: In order to determine the solubility of the three studied phenolic acids in deep eutectic solvents, a very well-established shake-flask method coupled with spectrophotometric measurements was utilized. The initial procedure involved the preparation of various DESs, which was conducted by mixing their HBA and HBD counterparts in a glass vessel and heating the composition until the formation of a transparent, uniform liquid. […] For additional measurements, the DESs were mixed with water in varying proportions, creating aqueous DES systems. Saturated solutions of CAF, SYR, and COU were obtained by adding excess amounts of these compounds to test tubes containing either a neat deep eutectic solvent or its aqueous solution. Such samples were placed in the Orbital Shaker Incubator ES-20/60 from Biosan (Riga, Latvia) and heated for 24 h at 25 °C, 30 °C, 35 °C, and 40 °C (±0.1 °C) with simultaneous mixing at 60 rpm. Before measurements, the samples were filtered using a PTFE syringe filter from Qpore (Dallas, TX, USA) with a 0.22 μm pore size. In order to avoid possible precipitation of the saturated solutions at decreased temperatures, the test tubes, syringes, pipette tips, and filters were kept at a temperature identical to that of the samples. The spectrophotometric measurements required the preparation of calibration curves for the three APIs. This involved the preparation of a stock solution of each compound in methanol, which was later successfully diluted, and the obtained solutions of varying concentrations were measured using an A360 spectrophotometer from AOE Instruments (Shanghai, China). The wavelength range was set to 200-500 nm, and the resolution was 1 nm. The analytical wavelengths were determined to be 324 nm for caffeic acid, 273 nm for syringic acid, and 308 nm for p-coumaric acid. The final regression equations, obtained after averaging three distinct sets of measurements, are collected in Table 2 together with determination coefficients and limits of detection (LOD) and quantification (LOQ) for the calibration curves. The measurements of the samples were conducted with the same spectrophotometer and identical settings. Methanol was used for the dilution of the samples so that they could remain within the linearity range of the method. Complete spectra of the samples were recorded, but for the solubility determination, the absorbance values at a specific analytical wavelength were considered. These values were combined with the corresponding regression equations of the calibration curves and served for the calculation of the concentration of the three phenolic acids in the studied samples. The densities of such samples were also measured, and for this task 1 mL of each sample was weighed to a precision of 0.1 mg using an AS 110 R2.PLUS analytical balance from […] (Radom, Poland). The obtained densities enabled the calculation of mole fractions of CAF, SYR, and COU dissolved in the studied DESs. For each considered system, three distinct measurements were conducted, and the results were averaged.

Mole fraction solubility (Bet – TEG 1:2 + water, x*DES 0.1, 25°C): 0.0042±0.0001 mole fraction
Mole fraction solubility (Bet – TEG 1:2 + water, x*DES 0.1, 30°C): 0.0046±0.0001 mole fraction
Mole fraction solubility (Bet – TEG 1:2 + water, x*DES 0.1, 35°C): 0.0057±0.0001 mole fraction
Mole fraction solubility (Bet – TEG 1:2 + water, x*DES 0.1, 40°C): 0.0067±0.0001 mole fraction
Mole fraction solubility (Bet – TEG 1:2 + water, x*DES 0.2, 25°C): 0.0093±0.0001 mole fraction
Mole fraction solubility (Bet – TEG 1:2 + water, x*DES 0.2, 30°C): 0.0105±0.0001 mole fraction
Mole fraction solubility (Bet – TEG 1:2 + water, x*DES 0.2, 35°C): 0.0127±0.0001 mole fraction
Mole fraction solubility (Bet – TEG 1:2 + water, x*DES 0.2, 40°C): 0.0148±0.0002 mole fraction
Mole fraction solubility (Bet – TEG 1:2 + water, x*DES 0.3, 25°C): 0.0153±0.0001 mole fraction
Mole fraction solubility (Bet – TEG 1:2 + water, x*DES 0.3, 30°C): 0.0173±0.0001 mole fraction
Mole fraction solubility (Bet – TEG 1:2 + water, x*DES 0.3, 35°C): 0.0207±0.0002 mole fraction
Mole fraction solubility (Bet – TEG 1:2 + water, x*DES 0.3, 40°C): 0.0239±0.0002 mole fraction
Mole fraction solubility (Bet – TEG 1:2 + water, x*DES 0.4, 25°C): 0.0214±0.0002 mole fraction
Mole fraction solubility (Bet – TEG 1:2 + water, x*DES 0.4, 30°C): 0.0247±0.0001 mole fraction
Mole fraction solubility (Bet – TEG 1:2 + water, x*DES 0.4, 35°C): 0.0290±0.0002 mole fraction
Mole fraction solubility (Bet – TEG 1:2 + water, x*DES 0.4, 40°C): 0.0341±0.0003 mole fraction
Mole fraction solubility (Bet – TEG 1:2 + water, x*DES 0.5, 25°C): 0.0284±0.0002 mole fraction
Mole fraction solubility (Bet – TEG 1:2 + water, x*DES 0.5, 30°C): 0.0318±0.0002 mole fraction
Mole fraction solubility (Bet – TEG 1:2 + water, x*DES 0.5, 35°C): 0.0386±0.0002 mole fraction
Mole fraction solubility (Bet – TEG 1:2 + water, x*DES 0.5, 40°C): 0.0457±0.0003 mole fraction
Mole fraction solubility (Bet – TEG 1:2 + water, x*DES 0.6, 25°C): 0.0351±0.0003 mole fraction
Mole fraction solubility (Bet – TEG 1:2 + water, x*DES 0.6, 30°C): 0.0396±0.0003 mole fraction
Mole fraction solubility (Bet – TEG 1:2 + water, x*DES 0.6, 35°C): 0.0475±0.0009 mole fraction
Mole fraction solubility (Bet – TEG 1:2 + water, x*DES 0.6, 40°C): 0.0568±0.0006 mole fraction
Mole fraction solubility (Bet – TEG 1:2 + water, x*DES 0.7, 25°C): 0.0425±0.0003 mole fraction
Mole fraction solubility (Bet – TEG 1:2 + water, x*DES 0.7, 30°C): 0.0483±0.0005 mole fraction
Mole fraction solubility (Bet – TEG 1:2 + water, x*DES 0.7, 35°C): 0.0579±0.0010 mole fraction
Mole fraction solubility (Bet – TEG 1:2 + water, x*DES 0.7, 40°C): 0.0702±0.0004 mole fraction
Mole fraction solubility (Bet – TEG 1:2 + water, x*DES 0.8, 30°C): 0.0558±0.0006 mole fraction
Mole fraction solubility (Bet – TEG 1:2 + water, x*DES 0.8, 35°C): 0.0673±0.0015 mole fraction
Mole fraction solubility (Bet – TEG 1:2 + water, x*DES 0.8, 40°C): 0.0790±0.0009 mole fraction
Mole fraction solubility (Bet – TEG 1:2 + water, x*DES 0.9, 25°C): 0.0488 mole fraction
Mole fraction solubility (Bet – TEG 1:2 + water, x*DES 0.9, 25°C, listed as syryngic acid): 0.0488±0.0004 mole fraction
Mole fraction solubility (Bet – TEG 1:2 + water, x*DES 0.9, 30°C): 0.0551±0.0005 mole fraction
Mole fraction solubility (Bet – TEG 1:2 + water, x*DES 0.9, 35°C): 0.0682±0.0014 mole fraction
Mole fraction solubility (Bet – TEG 1:2 + water, x*DES 0.9, 40°C): 0.0796±0.0008 mole fraction
Mole fraction solubility (Bet – TEG 1:2, x*DES 1.0 (neat DES), 25°C): 0.0474±0.0003 mole fraction
Mole fraction solubility (Bet – TEG 1:2, x*DES 1.0 (neat DES), 30°C): 0.0541±0.0004 mole fraction
Mole fraction solubility (Bet – TEG 1:2, x*DES 1.0 (neat DES), 35°C): 0.0657±0.0011 mole fraction
Mole fraction solubility (Bet – TEG 1:2, x*DES 1.0 (neat DES), 40°C): 0.0778±0.0009 mole fraction
Increase in the solubility compared to the neat DES (Bet-TEG 1:2, x*DES = 0.9 (xwater = 0.1), 25 °C): 3%
Mole fraction solubility (ChCl – TEG 1:2 + water, x*DES 0.1, 25°C): 0.0069±0.0001 mole fraction
Mole fraction solubility (ChCl – TEG 1:2 + water, x*DES 0.1, 30°C): 0.0093±0.0001 mole fraction
Mole fraction solubility (ChCl – TEG 1:2 + water, x*DES 0.1, 35°C): 0.0131±0.0001 mole fraction
Mole fraction solubility (ChCl – TEG 1:2 + water, x*DES 0.1, 40°C): 0.0174±0.0002 mole fraction
Mole fraction solubility (ChCl – TEG 1:2 + water, x*DES 0.2, 25°C): 0.0122±0.0001 mole fraction
Mole fraction solubility (ChCl – TEG 1:2 + water, x*DES 0.2, 30°C): 0.0158±0.0001 mole fraction
Mole fraction solubility (ChCl – TEG 1:2 + water, x*DES 0.2, 35°C): 0.0218±0.0001 mole fraction
Mole fraction solubility (ChCl – TEG 1:2 + water, x*DES 0.2, 40°C): 0.0305±0.0002 mole fraction
Mole fraction solubility (ChCl – TEG 1:2 + water, x*DES 0.3, 25°C): 0.0186±0.0001 mole fraction
Mole fraction solubility (ChCl – TEG 1:2 + water, x*DES 0.3, 30°C): 0.0249±0.0001 mole fraction
Mole fraction solubility (ChCl – TEG 1:2 + water, x*DES 0.3, 35°C): 0.0347±0.0003 mole fraction
SMILES: COc1cc(C(=O)O)cc(OC)c1O [syringic acid, 4-hydroxy-3,5-dimethoxybenzoic acid]
